According to US8309718B2, “4-pyrazolyl-N-arylpyrimidin-2-amines and 4-pyrazolyl-N-heteroarylpyrimidin-2-amines as janus kinase inhibitors” (Incyte Corporation, priority 2007, dated 2012):

These compounds were tested against T1, human JAK2 (Homo sapiens, UniProt O60674) (assay: In vitro JAK kinase assay (HTRF, phosphorylation of biotinylated peptide)). Details: catalytic domain a.a. 828-1132, 30 μM ATP, 500 nM peptide, room temperature 1 hr; read-out: JAK-2 IC50.
T1 construct: JAK2 (a.a. 828-1132); His tag (N); made in house; host or cells: insect cells (baculovirus)
T1 sequence (O60674 828-1132): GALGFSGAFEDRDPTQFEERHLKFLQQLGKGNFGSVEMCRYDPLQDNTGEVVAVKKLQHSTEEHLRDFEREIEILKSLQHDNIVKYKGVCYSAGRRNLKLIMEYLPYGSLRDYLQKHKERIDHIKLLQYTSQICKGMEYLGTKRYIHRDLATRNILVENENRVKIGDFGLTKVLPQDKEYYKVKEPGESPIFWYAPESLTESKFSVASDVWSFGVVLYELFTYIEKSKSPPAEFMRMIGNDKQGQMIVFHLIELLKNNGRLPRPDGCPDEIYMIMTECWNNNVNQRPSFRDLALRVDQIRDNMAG
Format: biochemical
How it was run: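 IC50 from HTRF detection (Eu-Py20 antibody, SA-APC) of biotinylated-peptide phosphorylation (500 nM), run 1 h at RT. Enzyme: N-His human JAK2 kinase domain a.a. 828-1132 from insect cells; ATP 30 μM; buffer 50 mM Tris pH 7.8 with NaCl, DTT, BSA.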

IC50 | Compound
< 100 nM | N#CCC(C1CCC1)n1cc(-c2ccnc(Nc3ccc(N4CCCCC4=O)cc3)n2)cn1 (racemic) [Example 174, 3-cyclobutyl-3-(4-(2-(4-(2-oxopiperidin-1-yl)phenylamino)pyrimidin-4-yl)-1H-pyrazol-1-yl)propanenitrile]
< 100 nM | N#CCC(C1CCC1)n1cc(-c2ccnc(Nc3ccc(N4CCOCC4=O)cc3)n2)cn1 (racemic) [Example 175, 3-cyclobutyl-3-(4-(2-(4-(3-oxomorpholino)phenylamino)pyrimidin-4-yl)-1H-pyrazol-1-yl)propanenitrile]
< 100 nM | N#CCC(C1CCC1)n1cc(-c2ccnc(Nc3cccc(-c4cnco4)c3)n2)cn1 (racemic) [Example 176, 3-cyclobutyl-3-(4-(2-(3-(oxazol-5-yl)phenylamino)pyrimidin-4-yl)-1H-pyrazol-1-yl)propanenitrile]
< 100 nM | N#CCC(C1CC1)n1cc(-c2ccnc(Nc3ccc(N4CCOCC4)cc3)n2)cn1 (racemic) [Example 177, 3-cyclopropyl-3-(4-(2-(4-morpholinophenylamino)pyrimidin-4-yl)-1H-pyrazol-1-yl)propanenitrile]
< 100 nM | N#CCC(C1CC1)n1cc(-c2ccnc(Nc3ccc(-n4cccn4)cc3)n2)cn1 (racemic) [Example 178, 3-(4-(2-(4-(1H-pyrazol-1-yl)phenylamino)pyrimidin-4-yl)-1H-pyrazol-1-yl)-3-cyclopropylpropanenitrile]
< 100 nM | N#CCC(C1CC1)n1cc(-c2ccnc(Nc3ccc(N4CCCCC4=O)cc3)n2)cn1 (racemic) [Example 179, 3-cyclopropyl-3-(4-(2-(4-(2-oxopiperidin-1-yl)phenylamino)pyrimidin-4-yl)-1H-pyrazol-1-yl)propanenitrile]
< 100 nM | N#CCC(C1CC1)n1cc(-c2ccnc(Nc3ccc(N4CCOCC4=O)cc3)n2)cn1 (racemic) [Example 180, 3-cyclopropyl-3-(4-(2-(4-(3-oxomorpholino)phenylamino)pyrimidin-4-yl)-1H-pyrazol-1-yl)propanenitrile]
< 100 nM | N#CCC(C1CC1)n1cc(-c2ccnc(Nc3cccc(-c4cnco4)c3)n2)cn1 (racemic) [Example 181, 3-cyclopropyl-3-(4-(2-(3-(oxazol-5-yl)phenylamino)pyrimidin-4-yl)-1H-pyrazol-1-yl)propanenitrile]
< 100 nM | C[C@@H]1CN(S(=O)(=O)Nc2ccc(Nc3nccc(-c4cnn(C(CC#N)C5CCCC5)c4)n3)cc2)C[C@H](C)O1 (mixture of isomers) [Example 182, N-(4-(4-(1-(2-cyano-1-cyclopentylethyl)-1H-pyrazol-4-yl)pyrimidin-2-ylamino)phenyl)-(cis)-2,6-dimethylmorpholine-4-sulfonamide]
< 100 nM | N#CCC(C1CCCC1)n1cc(-c2ccnc(Nc3ccc(NC(=O)c4ccccc4)cc3)n2)cn1 (racemic) [Example 183, N-(4-(4-(1-(2-cyano-1-cyclopentylethyl)-1H-pyrazol-4-yl)pyrimidin-2-ylamino)phenyl)benzamide]
< 100 nM | CS(=O)(=O)CS(=O)(=O)Nc1ccc(Nc2nccc(-c3cnn(C(CC#N)C4CCCC4)c3)n2)cc1 (racemic) [Example 184, N-(4-(4-(1-(2-cyano-1-cyclopentylethyl)-1H-pyrazol-4-yl)pyrimidin-2-ylamino)phenyl)-1-(methylsulfonyl)methanesulfonamide]
< 100 nM | N#CCC(C1CCCC1)n1cc(-c2ccnc(Nc3ccc(NC(=O)c4cc(F)cc(F)c4)cc3)n2)cn1 (racemic) [Example 185, N-(4-(4-(1-(2-cyano-1-cyclopentylethyl)-1H-pyrazol-4-yl)pyrimidin-2-ylamino)phenyl)-3,5-difluorobenzamide]
< 100 nM | CN(C)S(=O)(=O)Nc1ccc(Nc2nccc(-c3cnn(C(CC#N)C4CCCC4)c3)n2)cc1 (racemic) [Example 186, NA-(4-(4-(1-(2-cyano-1-cyclopentylethyl)-1H-pyrazol-4-yl)pyrimidin-2-ylamino)phenyl)-N,N-dimethylsulfamide]
< 100 nM | Cc1cc(C(=O)Nc2ccc(Nc3nccc(-c4cnn(C(CC#N)C5CCCC5)c4)n3)cc2)no1 (racemic) [Example 187, N-(4-(4-(1-(2-cyano-1-cyclopentylethyl)-1H-pyrazol-4-yl)pyrimidin-2-ylamino)phenyl)-5-methylisoxazole-3-carboxamide]
< 100 nM | N#CCC(C1CCCC1)n1cc(-c2ccnc(Nc3ccc(NC(=O)c4ccno4)cc3)n2)cn1 (racemic) [Example 188, N-(4-(4-(1-(2-cyano-1-cyclopentylethyl)-1H-pyrazol-4-yl)pyrimidin-2-ylamino)phenyl)isoxazole-5-carboxamide]
< 100 nM | Cc1noc(C)c1C(=O)Nc1ccc(Nc2nccc(-c3cnn(C(CC#N)C4CCCC4)c3)n2)cc1 (racemic) [Example 189, N-(4-(4-(1-(2-cyano-1-cyclopentylethyl)-1H-pyrazol-4-yl)pyrimidin-2-ylamino)phenyl)-3,5-dimethylisoxazole-4-carboxamide]
< 100 nM | Cn1ccc(S(=O)(=O)Nc2ccc(Nc3nccc(-c4cnn(C(CC#N)C5CCCC5)c4)n3)cc2)n1 (racemic) [Example 190, N-(4-(4-(1-(2-cyano-1-cyclopentylethyl)-1H-pyrazol-4-yl)pyrimidin-2-ylamino)phenyl)-1-methyl-1H-pyrazole-3-sulfonamide]
< 100 nM | N#CCC(C1CCCC1)n1cc(-c2ccnc(Nc3ccc(N4CCCS4(=O)=O)cc3)n2)cn1 (racemic) [Example 192, 3-cyclopentyl-3-(4-(2-(4-(1,1-dioxidoisothiazolidin-2-yl)phenyl)aminopyrimidin-4-yl)-1H-pyrazol-1-yl)propanenitrile]
< 100 nM | Cc1nc(-c2ccc(S(=O)(=O)Nc3ccc(Nc4nccc(-c5cnn(C(CC#N)C6CCCC6)c5)n4)cc3)s2)cs1 (racemic) [Example 193, N-(4-(4-(1-(2-cyano-1-cyclopentylethyl)-1H-pyrazol-4-yl)pyrimidin-2-ylamino)phenyl)-5-(2-methylthiazol-4-yl)thiophene-2-sulfonamide]
< 100 nM | Cc1cccc(S(=O)(=O)Nc2ccc(Nc3nccc(-c4cnn(C(CC#N)C5CCCC5)c4)n3)cc2)n1 (racemic) [Example 194, N-(4-(4-(1-(2-cyano-1-cyclopentylethyl)-1H-pyrazol-4-yl)pyrimidin-2-ylamino)phenyl)-6-methylpyridine-2-sulfonamide]
< 100 nM | N#CCC(C1CCCC1)n1cc(-c2ccnc(Nc3ccc(NS(=O)(=O)c4ccc(-c5ccccn5)s4)cc3)n2)cn1 (racemic) [Example 195, N-(4-(4-(1-(2-cyano-1-cyclopentylethyl)-1H-pyrazol-4-yl)pyrimidin-2-ylamino)phenyl)-5-(pyridin-2-yl)thiophene-2-sulfonamide]
< 100 nM | N#CCC(C1CCCC1)n1cc(-c2ccnc(Nc3ccc(NS(=O)(=O)c4ccc(Cl)s4)cc3)n2)cn1 (racemic) [Example 196, 5-chloro-N-(4-(4-(1-(2-cyano-1-cyclopentylethyl)-1H-pyrazol-4-yl)pyrimidin-2-ylamino)phenyl)thiophene-2-sulfonamide]
< 100 nM | N#CCC(C1CCCC1)n1cc(-c2ccnc(Nc3ccc(NS(=O)(=O)c4ccc(N5CCOCC5)nc4)cc3)n2)cn1 (racemic) [Example 197, N-(4-(4-(1-(2-cyano-1-cyclopentylethyl)-1H-pyrazol-4-yl)pyrimidin-2-ylamino)phenyl)-6-morpholinopyridine-3-sulfonamide]
